Laboratory results as given in patent US20100150911A1, “METHODS AND SYSTEMS OF TREATING AGE-RELATED MACULAR-DEGENERATION” (OPTO GLOBAL HOLDINGS PTY LTD, priority 2007, published 2010).

System: subfoveal choroidal neovascularization (CNV) secondary to age-related macular degeneration (AMD)
Assay: Indocyanine green mediated photothrombosis (i-MP) with and without intravitreal Bevacizumab in patients (Example 4)
Assay type: in vivo, human

## i-MP+intravitreal Bevacizumab: i-MP combined with an intravitreal injection of Bevacizumab (Avastin), an anti-VEGF compound
10 months of follow-up, 25 eyes
  need to perform a second treatment session: not required
10 months of follow-up, 25 eyes per group
  eyes with improvement of the visual acuity in 2 lines (Group B: almost 2 lines) with staining in the fluorescein angiography: 68%
10 months of follow-up, compared with i-MP alone
  response of the choroidal neovascular membranes (fluorescein angiography and OCT): responded better
Left eye, occult CNV, visual acuity 0.1 before treatment, 10 months after treatment
  visual acuity obtained by a single patient: 0.3
